US9744186B2 (priority 2012, dated 2017)

Assays:
[1] = TC50 MTS assay with human cancer cell lines: HEK293; format: cell-based; details: HEK293 cells, 96 h drug treatment
Description: (§1) Plating Cells: The Huh7, HEPG2, HEK293, MCF-7, PK9, RPK9, or BxPC3 cells were passaged when they were about 70% confluent. The cells were counted using a hemocytometer, and then diluted cells to 0.5×10^5 cells per mL in DMEM+10% FBS. 100 µL of the cells (5,000 cells) were plated per well in a clear 96-well plate. The cells were allowed to attach for 24 hours at 37° C.
(§2) Treating the cells: Pre-warm the DMEM media without phenol red+2% FBS media to 37° C. […] This will bring the final DMSO concentration to 0.5%. Use these 0.5 mM dilutions to further serially the drugs in DMEM without phenol red+2% FBS+0.5% DMSO. This will keep the concentration of DMSO in each condition identical. Remove the 96-well plate from the 37° C. incubator. Replace the media on the plate with the dilutions of the drugs. Stagger these treatments by 1 h and write the treatment time on each set of plates. Return to 37° C. for 48 h or 96 h as indicated.
(§3) MTS Assay: The reagents from CellTiter 96 kit (Promega Corporation, Madison, Wis.) were thawed at room temperature in the dark for 1 h. The 96-well plate was removed from the 37° C. incubator at 48 h after drug treatment. 20 μL of the combined MTS/PMS reagent to each well of the plate, mixed, and the plate returned to 37° C. The absorbance of each well at 490 nm and 650 nm was determined using the Flexstation 3 microplate reader in endpoint mode every hour for 3 h. The solutions in the wells were mixed prior to each reading. Fit Data to the Emax model: y=(Emax*x)/(TC50+x), where Emax is the maximum inhibition and TC50 is the inhibitory dose 50%. Alternatively, fit the data to the Emax sigmoidal model: y=(Emax*x^slope)/(TC50^slope+x^slope), where slope is the Hill Slope.
(§4) Each TC50 was the average value of three measurements as described herein. […] The RPK9 cells are deficient in deoxycytidine kinase (“dCK”) activity, an enzyme required for the initial phosphorylation of dFdC to dFdCMP (see FIG. 2).

[2] = Stability test of HPLC-purified gemcitabine analogs at different pH conditions; format: physicochemical; details: 200 μM
Description: The solution was then incubated for 4 hours at 40° C. [table] HPLC analysis: 100 μl of the incubated solution was loaded onto the Vydac C18 analytical column 4.6/250 at 1 ml/min water with the following procedures: a. Inject 100 μl the incubated solution; b. Water for 5 minutes at 1 ml/min; c. 0-100% methanol over 30 minutes; d. Back to 20% methanol. Analysis: The standard HPLC analysis software was used to quantitate the area under each peak. Degradation peaks are quantitated as a percentage of the peak of the same amount of control sample (no heat treatment).

[3] = TC50 MTS assay with human cancer cell lines: HEPG2; format: cell-based; details: HEPG2 cells, 96 h drug treatment
Description: as §1, §2, §3, §4

[4] = tested on: HCV luciferase replicon; test: Reversal of anti-HCV activity by exogenous nucleosides; format: cell-based, hepatitis C virus (HCV); details: drug 1000, 100 or 25 nM; 50 μM cytidine or 2′-deoxycitidine; 48 h
Description: After 48 hours, the cells were lysed, and the total luciferase activity was determined. […] Where indicated, either 50 μM cytidine (C) or 50 μM 2′-deoxycitidine (dC) was also included.
The cells were plated, incubated with drug, and luciferase activity assayed essentially as described herein above. The incubation with drug was for 48 h.

[5] = TC50 MTS assay with human cancer cell lines: MCF-7; format: cell-based; details: MCF-7 cells, 96 h drug treatment
Description: as §1, §2, §3, §4

[6] = tested on: HCV luciferase replicon; test: HCV luciferase replicon IC50 assay in Huh7 cells; details: for IC50: Hepatitis C virus; for Therapeutic Index (TC50/IC50): TC50 in Huh7 / IC50 HCV replicon, 48 h
Description: Plating Cells: The Luciferase replicon cell line was passaged when it was at about 70% confluency. The cells were counted by using a hemocytometer and diluted to 1×10^5 cells per mL in DMEM+10% FBS+[…] G415. The cells were plated as follows: 100 μL of the cells (10,000 cells) per well in a white-walled 96-well plate. The cells were allowed to attach for 24 hours at 37° C.
(§5) Treating the cells: Media (DMEM+2% FBS) was pre-warmed to 37° C. […] The 96-well plate was removed from the 37° C. incubator, and the media replaced on the plate with the serial dilutions of the test drug. The plate was then returned to 37° C. for 48 h.
Luciferase Assay: The Bright-Glo reagent (Promega Corporation, Madison, Wis.) was removed from the −80° C. freezer and allowed to thaw it at 4° C. in the dark. The amount of reagent necessary for the experiment (3.65 mL) was removed, and the remaining reagent was returned to −80° C. The Glo Lysis Buffer and the Bright Glow reagent were allowed to warm to room temperature for 30 min in the dark. The 96 well plate was removed from the incubator and the cells to allowed cool to room temperature for 30 min. The media was removed from the cells, and each well was gently washed in 100 μL of phosphate buffered saline (PBS). The PBS was removed and then 50 μL of the Glo Lysis Buffer was added to each well, followed by gently rocking the plate for 15 min at room temperature in the dark to ensure complete cell lysis. To each well of the 96-well plate was added 50 μL of the Bright Glo reagent and it was mixed well with the lysate. The plate was inserted into a GloMax 96 plate reader and allowed to sit for 5 min in the dark for the luciferase reaction to reach a steady state. The luminescence on the plate was read by using the pre-installed “Bright Glo” Promega program (Synergy Software) and the data were collected and saved. The data were fit to a 4 parameter logistic curve using Kaleidagraph using the following equation: 100/(1+(x/m3)^m4).
The data in Table 1 were determined for cells exposed to drug for 48 h. The IC50 is the concentration of each compound necessary to inhibit the replication of the HCV luciferase replicon to 50%.
That is, the cells were exposed to drug for 2 h at 37° C., followed by 46 h at 37° C. or incubated in the presence of drug for 48 h at 37° C.

[7] = TC50 MTS assay with human cancer cell lines: Huh7; format: cell-based; details: human, Huh7 cells; 96 h drug treatment
Description: as §1, §2, §3, §4

[8] = Compound solubility in media; format: physicochemical; details: DMEM+2% FBS cell culture media, 37 °C, plasma or biological fluid, kinetic from dmso stock; DMEM+2% FBS media
Description: as §5

[9] = Pretreatment (control sample, no heat treatment)
[10] = Huh-7, 48 h, Huh7 cells containing HCV luciferase replicon, cells exposed to drug for 48 h

Compound | CC50 at 96 h [1] [nM] | % remaining [2, 9] [%] | % remaining ([2]; pH 1, 4 hours at 40° C.) [%] | % remaining ([2]; pH 2, 4 hours at 40° C.) [%] | % remaining ([2]; pH 4, 4 hours at 40° C.) [%] | % remaining ([2]; pH 6, 4 hours at 40° C.) [%] | % remaining ([2]; pH 8, 4 hours at 40° C.) [%] | CC50 at 96 h [3] [nM] | reversal of the inhibition of the HCV luciferase replicon by deoxycytidine and cytidine [4] | CC50 at 96 h [5] [nM] | IC50 [6, 10] [nM] | Therapeutic Index (TC50/IC50) [6] | CC50 at 96 h [7] [nM] | solubility [8] [µM] | IC50 ([6]; Huh-7, 48 h, cells incubated with drug continuously for 48 h (Table 5)) [nM] | IC50 ([6]; Huh-7, cells incubated with drug for 2 h, followed by 46 h without drug) [nM]
O=C(Nc1ccn([C@@H]2O[C@H](CO)[C@@H](O)C2(F)F)c(=O)n1)c1cc(Cl)cc(Cl)c1 [GCB, N^4-(3,5-Dichlorobenzoyl)gemcitabine] | 1190 ± 180 | 100 | 35 | 82 | 98.4 | 99.6 | 35.4 | 633 ± 207 | reversal | 326 ± 88 | 25.5 ± 2.2 | 4310 | 4170 ± 1060 | < 500 | – | –
COc1cc(C(=O)Nc2ccn([C@@H]3O[C@H](CO)[C@@H](O)C3(F)F)c(=O)n2)cc(OC)c1OC [GTB, N^4-(3,4,5-Trimethoxybenzoyl)gemcitabine] | 1280 ± 260 | 100 | 86 | 87 | 98.6 | 99.5 | 82.7 | 1670 ± 420 | reversal | 566 ± 118 | 49.3 ± 8.8 | 10040 | 5050 ± 1220 | > 500 | 49.3 ± 8.8 | 2770 ± 265
